Results as given in patent publication US10611740B2, “Aryl dihydro-2H-benzo[b][1,4]oxazine sulfonamide and related compounds for use as agonists of RORγ and the treatment of disease” (Lycera Corporation, priority 2015, dated 2020).

How the values were obtained:
RORγ-LBD = biological target: T1, RORγ-LBD (Homo sapiens, UniProt P51449); assay: RORγ-Ligand Binding Domain (LBD) TR-FRET Assay; format: biochemical;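 as to TR-FRET Assay Max Response: 665/615 nm ratio relative to signal without ursolic acid or compound set at 100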
T1 construct: made in house; host or cells: SF9 cells (baculovirus)
T1 sequence (P51449 269-508 limits assumed): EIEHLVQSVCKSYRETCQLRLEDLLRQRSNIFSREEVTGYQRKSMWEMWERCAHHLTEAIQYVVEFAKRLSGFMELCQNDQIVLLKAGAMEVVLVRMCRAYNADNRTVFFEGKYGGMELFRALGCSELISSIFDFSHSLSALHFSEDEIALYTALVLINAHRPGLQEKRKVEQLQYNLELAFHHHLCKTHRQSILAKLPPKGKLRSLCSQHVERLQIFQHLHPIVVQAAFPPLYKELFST
In short: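 Compounds, diluted in DMSO and then in assay buffer (1% DMSO final), were combined with His-tagged RORγ-LBD lysate at roughly 3 nM final and a 200 nM biotinylated SRC1 LXXLL peptide. Ursolic acid was included at 2 μM final. Coactivator recruitment was detected by TR-FRET.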

Gal4-RORγ-LBD = biological target: T2, Gal4-RORγ-LBD (Homo sapiens, UniProt P51449); assay: Gal4-RORγ Luciferase Reporter Assay in HEK-293T Cells; format: cell-based; details: HEK-293 cells
T2 construct: expressed in transfected cells; host or cells: HEK-293 cells (pcDNA3.1neo plasmid)
T2 sequence (P51449 269-508 limits assumed): T1 sequence (P51449 269-508 limits assumed)
In short: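 HEK-293 cells were transiently co-transfected with Gal4-RORγ-LBD and pGL4.31 Gal4-luciferase, with ursolic acid added at 2 μM final. Compounds were incubated overnight at 37° C. in 0.2% DMSO and luminescence read with One-Glo. Max Response is the upper plateau of a 4-parameter logistic fit, with signal lacking ursolic acid or compound set to 100.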

[1] = luciferase reporter, with 2 μM ursolic acid

| Structure (SMILES) | EC50 (RORγ-LBD) | TR-FRET Assay Max Response (RORγ-LBD) | EC50 (Gal4-RORγ-LBD; [1]) | Gal4-RORγ Assay Max Response (Gal4-RORγ-LBD; [1]) | EC50 (Gal4-RORγ-LBD; 2 μM ursolic acid) | Gal4-RORγ Assay Max Response (Gal4-RORγ-LBD; 2 μM ursolic acid) |
| --- | --- | --- | --- | --- | --- | --- |
| COc1cc(S(=O)(=O)N2C[C@H](CCC(=O)O)Oc3ccc(-c4cc(F)cc(F)c4Cl)cc32)ccc1F [Compound 6K, (S)-3-(6-(2-chloro-3,5-difluorophenyl)-4-((4-fluoro-3-methoxyphenyl)sulfonyl)-3,4-dihydro-2H-benzo[b][1,4]oxazin-2-yl)propanoic acid] | < 500 nM | *** (The symbol “***” indicates a value in the range of greater than 150 to 200) | < 500 nM | ** (The symbol “**” indicates a value in the range of greater than 90 to 150) | – | – |
| O=C(O)CC[C@H]1CN(S(=O)(=O)c2cccc(OC(F)F)c2)c2cc(-c3cc(F)cc(F)c3Cl)ccc2O1 [Compound 6L, (S)-3-(6-(2-chloro-3,5-difluoro-phenyl)-4-((3-(difluoromethoxy)-phenyl)sulfonyl)-3,4-dihydro-2H-benzo[b][1,4]oxazin-2-yl)propanoic acid] | < 500 nM | *** (The symbol “***” indicates a value in the range of greater than 150 to 200) | < 500 nM | ** (The symbol “**” indicates a value in the range of greater than 90 to 150) | – | – |
| O=C(O)CC[C@H]1CN(S(=O)(=O)c2cccc(C(F)(F)F)c2)c2cc(-c3cccc(Cl)c3)c(Cl)cc2O1 [Compound 7, (S)-3-(7-chloro-6-(3-chlorophenyl)-4-((3-(trifluoromethyl)phenyl)sulfonyl)-3,4-dihydro-2H-benzo[b][1,4]oxazin-2-yl)propanoic acid] | < 500 nM | **** (The symbol “****” indicates a value greater than 200) | < 500 nM | ** (The symbol “**” indicates a value in the range of greater than 90 to 150) | – | – |
| O=C(O)CC[C@H]1CN(S(=O)(=O)c2cccc(C(F)(F)F)c2)c2cc(-c3cccc(Cl)c3)cc(F)c2O1 [Compound 8, (S)-3-(6-(3-chlorophenyl)-8-fluoro-4-((3-(trifluoromethyl)phenyl)sulfonyl)-3,4-dihydro-2H-benzo[b][1,4]oxazin-2-yl)propanoic acid] | < 500 nM | **** (The symbol “****” indicates a value greater than 200) | < 500 nM | ** (The symbol “**” indicates a value in the range of greater than 90 to 150) | – | – |
| O=C(O)C1CCN(C(=O)CC[C@H]2CN(S(=O)(=O)c3cccc(C(F)(F)F)c3)c3cc(-c4cccc(Cl)c4)cc(F)c3O2)CC1 [Compound 9, (S)-1-(3-(6-(3-chlorophenyl)-8-fluoro-4-((3-(trifluoromethyl)phenyl)sulfonyl)-3,4-dihydro-2H-benzo[b][1,4]oxazin-2-yl)propanoyl)piperidine-4-carboxylic acid] | < 500 nM | **** (The symbol “****” indicates a value greater than 200) | < 500 nM | ** (The symbol “**” indicates a value in the range of greater than 90 to 150) | – | – |
| CC(C)(O)CC[C@H]1CN(S(=O)(=O)c2cccc(C(F)(F)F)c2)c2cc(-c3cc(F)ccc3F)ccc2O1 [Compound 10, (S)-4-(6-(2,5-difluorophenyl)-4-((3-(trifluoromethyl)phenyl)sulfonyl)-3,4-dihydro-2H-benzo[b][1,4]oxazin-2-yl)-2-methylbutan-2-ol] | < 500 nM | **** (The symbol “****” indicates a value greater than 200) | < 500 nM | ** (The symbol “**” indicates a value in the range of greater than 90 to 150) | – | – |
| O=c1[nH]nc(CC[C@H]2CN(S(=O)(=O)c3cccc(C(F)(F)F)c3)c3cc(-c4cc(F)ccc4F)ccc3O2)o1 [Compound 11, (S)-5-(2-(6-(2,5-difluorophenyl)-4-((3-(trifluoromethyl)phenyl)sulfonyl)-3,4-dihydro-2H-benzo[b][1,4]oxazin-2-yl)ethyl)-1,3,4-oxadiazol-2(3H)-one] | < 500 nM | **** (The symbol “****” indicates a value greater than 200) | < 500 nM | ** (The symbol “**” indicates a value in the range of greater than 90 to 150) | – | – |
| CC(C)(C)OC(=O)NCC[C@H]1CN(S(=O)(=O)c2cccc(C(F)(F)F)c2)c2cc(-c3cc(F)ccc3F)ccc2O1 [Compound 12, tert-butyl (S)-(2-(6-(2,5-difluorophenyl)-4-((3-(trifluoromethyl)phenyl)sulfonyl)-3,4-dihydro-2H-benzo[b][1,4]oxazin-2-yl)ethyl)carbamate] | < 500 nM | **** (The symbol “****” indicates a value greater than 200) | < 500 nM | * (The symbol “*” indicates a value in the range of 25 to 90) | – | – |
| CC(=O)NCC[C@H]1CN(S(=O)(=O)c2cccc(C(F)(F)F)c2)c2cc(-c3cc(F)ccc3F)ccc2O1 [Compound 13, (S)—N-(2-(6-(2,5-difluorophenyl)-4-((3-(trifluoromethyl)phenyl)sulfonyl)-3,4-dihydro-2H-benzo[b][1,4]oxazin-2-yl)ethyl)acetamide] | < 500 nM | **** (The symbol “****” indicates a value greater than 200) | – | – | < 500 nM | ** (The symbol “**” indicates a value in the range of greater than 90 to 150) |
| O=C(NC[C@H]1CN(S(=O)(=O)c2cccc(C(F)(F)F)c2)c2cc(-c3cc(F)ccc3F)ccc2O1)N1CCOCC1 [Compound 16, (S)—N-((6-(2,5-difluorophenyl)-4-((3-(trifluoromethyl)phenyl)sulfonyl)-3,4-dihydro-2H-benzo[b][1,4]oxazin-2-yl)methyl)morpholine-4-carboxamide] | < 500 nM | **** (The symbol “****” indicates a value greater than 200) | – | – | < 500 nM | ** (The symbol “**” indicates a value in the range of greater than 90 to 150) |
| CC(C)(O)C(=O)NC[C@H]1CN(S(=O)(=O)c2cccc(C(F)(F)F)c2)c2cc(-c3cc(F)ccc3F)ccc2O1 [Compound 17, (S)—N-((6-(2,5-difluorophenyl)-4-((3-(trifluoromethyl)phenyl)sulfonyl)-3,4-dihydro-2H-benzo[b][1,4]oxazin-2-yl)methyl)-2-hydroxy-2-methylpropanamide] | < 500 nM | **** (The symbol “****” indicates a value greater than 200) | – | – | < 500 nM | ** (The symbol “**” indicates a value in the range of greater than 90 to 150) |
| O=C(O)C1CC(=O)N(C[C@H]2CN(S(=O)(=O)c3cccc(C(F)(F)F)c3)c3cc(-c4cc(F)ccc4F)ccc3O2)C1 (stereo partly drawn) [Compound 18, 1-(((S)-6-(2,5-difluorophenyl)-4-((3-(trifluoromethyl)phenyl)sulfonyl)-3,4-dihydro-2H-benzo[b][1,4]oxazin-2-yl)methyl)-5-oxopyrrolidine-3-carboxylic acid] | < 500 nM | **** (The symbol “****” indicates a value greater than 200) | – | – | 500 to 5000 nM | ** (The symbol “**” indicates a value in the range of greater than 90 to 150) |
